In ChEMBL document CHEMBL5291721, “A preclinical secondary pharmacology resource illuminates target-adverse drug reaction associations of marketed drugs” (Nat Commun, 2023):

Experiments:
[1] = biological target: cGMP-inhibited 3',5'-cyclic phosphodiesterase 3A (Homo sapiens, UniProt Q14432); format: functional
[2] = biological target: T1, Prostaglandin G/H synthase 1 (Homo sapiens, UniProt P23219); format: functional
[3] = biological target: Vascular endothelial growth factor receptor 2 (Homo sapiens, UniProt P35968); format: functional
Thromboxane A2 receptor [4] = biological target: T2, Thromboxane A2 receptor (Homo sapiens, UniProt P21731); format: functional, cell-based
T2 sequence (P21731 whole entry): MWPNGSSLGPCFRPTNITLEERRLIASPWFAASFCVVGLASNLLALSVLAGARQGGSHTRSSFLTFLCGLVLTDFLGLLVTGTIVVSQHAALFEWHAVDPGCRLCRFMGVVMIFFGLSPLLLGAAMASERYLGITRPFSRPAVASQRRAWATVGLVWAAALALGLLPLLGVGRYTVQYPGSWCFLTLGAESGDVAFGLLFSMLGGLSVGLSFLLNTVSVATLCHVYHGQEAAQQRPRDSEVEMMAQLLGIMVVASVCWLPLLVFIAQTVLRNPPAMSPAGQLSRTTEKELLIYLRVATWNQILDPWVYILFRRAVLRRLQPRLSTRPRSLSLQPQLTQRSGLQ

[5] = biological target: 3',5'-cyclic-AMP phosphodiesterase 4A (Homo sapiens, UniProt P27815); format: functional
Chain of 3',5'-cyclic-AMP phosphodiesterase 4A (P27815 whole entry): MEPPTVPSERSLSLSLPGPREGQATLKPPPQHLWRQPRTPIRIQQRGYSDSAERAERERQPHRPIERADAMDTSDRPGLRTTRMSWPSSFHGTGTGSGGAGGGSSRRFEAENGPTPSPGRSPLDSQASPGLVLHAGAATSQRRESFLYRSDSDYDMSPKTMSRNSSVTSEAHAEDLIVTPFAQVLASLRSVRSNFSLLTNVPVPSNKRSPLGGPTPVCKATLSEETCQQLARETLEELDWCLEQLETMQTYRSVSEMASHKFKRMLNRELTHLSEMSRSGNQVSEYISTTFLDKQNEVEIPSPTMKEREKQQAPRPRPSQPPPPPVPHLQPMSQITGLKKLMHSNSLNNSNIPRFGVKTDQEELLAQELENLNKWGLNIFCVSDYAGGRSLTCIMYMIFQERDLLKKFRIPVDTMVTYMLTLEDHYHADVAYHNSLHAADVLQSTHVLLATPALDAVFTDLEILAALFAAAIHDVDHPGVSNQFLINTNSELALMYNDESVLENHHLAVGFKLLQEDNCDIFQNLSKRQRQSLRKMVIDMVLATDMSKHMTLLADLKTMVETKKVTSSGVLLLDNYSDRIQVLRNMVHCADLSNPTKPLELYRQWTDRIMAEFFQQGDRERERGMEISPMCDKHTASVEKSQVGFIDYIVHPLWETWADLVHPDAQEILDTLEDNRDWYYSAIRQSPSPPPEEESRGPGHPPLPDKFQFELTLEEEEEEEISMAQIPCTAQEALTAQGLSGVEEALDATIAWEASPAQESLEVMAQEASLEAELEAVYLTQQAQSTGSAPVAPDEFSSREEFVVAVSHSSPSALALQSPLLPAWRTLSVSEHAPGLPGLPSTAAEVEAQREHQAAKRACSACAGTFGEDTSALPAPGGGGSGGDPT

Thromboxane A2 receptor [6] = biological target: T2, Thromboxane A2 receptor; format: functional, cell-based; remark: listed apart in the source
Estrogen receptor = biological target: T3, Estrogen receptor (Homo sapiens, UniProt P03372)
T3 sequence (P03372 whole entry): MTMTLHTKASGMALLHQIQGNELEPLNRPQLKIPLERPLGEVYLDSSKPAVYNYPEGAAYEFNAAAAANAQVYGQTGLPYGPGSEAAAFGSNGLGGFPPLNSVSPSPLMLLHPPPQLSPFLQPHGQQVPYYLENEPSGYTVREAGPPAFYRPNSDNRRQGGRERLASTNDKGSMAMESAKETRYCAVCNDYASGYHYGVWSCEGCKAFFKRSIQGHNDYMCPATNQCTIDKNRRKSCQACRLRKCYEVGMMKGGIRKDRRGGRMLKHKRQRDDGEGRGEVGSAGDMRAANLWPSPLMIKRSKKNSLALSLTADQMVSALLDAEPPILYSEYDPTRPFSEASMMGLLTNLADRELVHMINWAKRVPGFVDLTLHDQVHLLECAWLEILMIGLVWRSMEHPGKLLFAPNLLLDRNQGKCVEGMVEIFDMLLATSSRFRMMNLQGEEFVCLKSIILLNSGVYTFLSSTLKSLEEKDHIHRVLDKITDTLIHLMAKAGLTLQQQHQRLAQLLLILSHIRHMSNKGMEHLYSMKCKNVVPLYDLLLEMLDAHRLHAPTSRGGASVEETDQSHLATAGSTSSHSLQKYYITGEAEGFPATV

[7] = biological target: T1, Prostaglandin G/H synthase 1; format: functional; remark: listed apart in the source
Acetylcholinesterase = Acetylcholinesterase (Homo sapiens, UniProt P22303); format: functional
Chain of Acetylcholinesterase (P22303 whole entry): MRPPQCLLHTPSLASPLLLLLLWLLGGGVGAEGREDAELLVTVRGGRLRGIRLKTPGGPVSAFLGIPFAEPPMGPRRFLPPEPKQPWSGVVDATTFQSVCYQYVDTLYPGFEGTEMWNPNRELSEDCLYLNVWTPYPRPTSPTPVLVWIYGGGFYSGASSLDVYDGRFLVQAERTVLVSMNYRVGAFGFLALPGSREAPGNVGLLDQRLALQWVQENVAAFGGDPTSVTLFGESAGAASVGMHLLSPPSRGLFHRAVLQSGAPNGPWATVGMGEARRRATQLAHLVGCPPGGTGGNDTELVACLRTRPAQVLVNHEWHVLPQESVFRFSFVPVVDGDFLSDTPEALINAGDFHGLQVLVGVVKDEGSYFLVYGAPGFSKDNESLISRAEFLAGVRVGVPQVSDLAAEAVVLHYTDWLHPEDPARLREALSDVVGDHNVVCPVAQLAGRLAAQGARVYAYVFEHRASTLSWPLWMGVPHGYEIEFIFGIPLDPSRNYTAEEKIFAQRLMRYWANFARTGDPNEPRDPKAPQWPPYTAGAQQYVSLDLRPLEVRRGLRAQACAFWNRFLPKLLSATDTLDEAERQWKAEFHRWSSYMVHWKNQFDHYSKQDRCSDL

Progesterone receptor = biological target: T4, Progesterone receptor (Homo sapiens, UniProt P06401)
T4 sequence (P06401 whole entry): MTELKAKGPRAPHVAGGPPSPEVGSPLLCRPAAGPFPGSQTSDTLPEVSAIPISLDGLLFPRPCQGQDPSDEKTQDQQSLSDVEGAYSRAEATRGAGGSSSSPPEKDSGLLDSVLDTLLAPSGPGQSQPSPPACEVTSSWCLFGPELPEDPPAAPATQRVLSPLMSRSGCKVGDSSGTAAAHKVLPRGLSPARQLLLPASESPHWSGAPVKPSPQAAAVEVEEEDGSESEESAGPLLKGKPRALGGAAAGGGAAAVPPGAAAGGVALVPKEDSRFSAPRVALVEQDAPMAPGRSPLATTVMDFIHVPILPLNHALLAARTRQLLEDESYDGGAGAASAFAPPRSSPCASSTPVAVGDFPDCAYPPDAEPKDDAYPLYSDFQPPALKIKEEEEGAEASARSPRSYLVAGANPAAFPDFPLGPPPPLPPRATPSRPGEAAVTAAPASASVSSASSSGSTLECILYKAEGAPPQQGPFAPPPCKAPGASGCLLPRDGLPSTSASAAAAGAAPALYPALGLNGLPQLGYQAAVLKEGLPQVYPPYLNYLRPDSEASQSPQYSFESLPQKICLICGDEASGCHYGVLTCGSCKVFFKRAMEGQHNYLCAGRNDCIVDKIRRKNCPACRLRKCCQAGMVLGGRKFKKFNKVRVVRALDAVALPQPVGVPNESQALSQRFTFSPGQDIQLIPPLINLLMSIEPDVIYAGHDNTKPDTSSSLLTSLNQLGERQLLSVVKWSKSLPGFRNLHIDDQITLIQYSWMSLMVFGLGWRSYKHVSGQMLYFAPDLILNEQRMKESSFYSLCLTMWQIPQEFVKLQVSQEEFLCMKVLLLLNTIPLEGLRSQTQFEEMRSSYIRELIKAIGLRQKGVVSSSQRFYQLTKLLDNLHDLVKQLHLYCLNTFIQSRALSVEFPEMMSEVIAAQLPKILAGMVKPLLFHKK

Prothrombin = Prothrombin (Homo sapiens, UniProt P00734); format: functional
Adenosine receptor A3 = biological target: T5, Adenosine receptor A3 (Homo sapiens, UniProt P0DMS8)
T5 sequence (P0DMS8 whole entry): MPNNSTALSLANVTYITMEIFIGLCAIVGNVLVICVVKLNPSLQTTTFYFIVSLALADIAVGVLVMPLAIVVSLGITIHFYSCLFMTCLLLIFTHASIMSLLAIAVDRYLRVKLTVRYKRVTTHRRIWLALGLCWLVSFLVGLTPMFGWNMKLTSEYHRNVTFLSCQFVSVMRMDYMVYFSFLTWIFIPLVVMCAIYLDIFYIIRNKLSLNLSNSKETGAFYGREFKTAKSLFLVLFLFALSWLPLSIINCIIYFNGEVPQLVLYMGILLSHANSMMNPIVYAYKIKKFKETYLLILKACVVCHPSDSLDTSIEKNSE

Adenosine receptor A1 = biological target: T6, Adenosine receptor A1 (Homo sapiens, UniProt P30542)
T6 sequence (P30542 whole entry): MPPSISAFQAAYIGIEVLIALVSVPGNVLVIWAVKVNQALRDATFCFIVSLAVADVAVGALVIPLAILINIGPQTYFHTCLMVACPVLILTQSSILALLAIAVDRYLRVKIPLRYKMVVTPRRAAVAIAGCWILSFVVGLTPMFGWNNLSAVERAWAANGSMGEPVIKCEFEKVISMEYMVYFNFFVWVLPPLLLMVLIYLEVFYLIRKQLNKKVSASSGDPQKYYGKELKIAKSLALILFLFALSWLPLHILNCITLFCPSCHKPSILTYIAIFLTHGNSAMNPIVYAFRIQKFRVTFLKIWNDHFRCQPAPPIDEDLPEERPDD

D(4) dopamine receptor = biological target: T7, D(4) dopamine receptor (Homo sapiens, UniProt P21917)
T7 sequence (P21917 whole entry): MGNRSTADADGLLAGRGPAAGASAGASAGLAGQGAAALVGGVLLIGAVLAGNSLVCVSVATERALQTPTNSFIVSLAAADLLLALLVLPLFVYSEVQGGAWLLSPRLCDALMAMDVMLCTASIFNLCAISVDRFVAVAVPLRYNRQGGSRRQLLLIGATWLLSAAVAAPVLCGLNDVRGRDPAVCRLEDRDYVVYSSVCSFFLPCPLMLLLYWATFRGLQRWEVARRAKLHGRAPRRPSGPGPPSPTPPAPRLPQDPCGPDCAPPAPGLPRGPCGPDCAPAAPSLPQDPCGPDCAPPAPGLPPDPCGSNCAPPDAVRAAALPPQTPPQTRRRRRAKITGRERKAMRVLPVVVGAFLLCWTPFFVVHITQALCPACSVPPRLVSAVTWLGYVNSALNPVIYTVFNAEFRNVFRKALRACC

[8] = biological target: Voltage-gated inwardly rectifying potassium channel KCNH2 (Homo sapiens, UniProt Q12809); format: functional; details: read-out: AC50
Chain of Voltage-gated inwardly rectifying potassium channel KCNH2 (Q12809 whole entry): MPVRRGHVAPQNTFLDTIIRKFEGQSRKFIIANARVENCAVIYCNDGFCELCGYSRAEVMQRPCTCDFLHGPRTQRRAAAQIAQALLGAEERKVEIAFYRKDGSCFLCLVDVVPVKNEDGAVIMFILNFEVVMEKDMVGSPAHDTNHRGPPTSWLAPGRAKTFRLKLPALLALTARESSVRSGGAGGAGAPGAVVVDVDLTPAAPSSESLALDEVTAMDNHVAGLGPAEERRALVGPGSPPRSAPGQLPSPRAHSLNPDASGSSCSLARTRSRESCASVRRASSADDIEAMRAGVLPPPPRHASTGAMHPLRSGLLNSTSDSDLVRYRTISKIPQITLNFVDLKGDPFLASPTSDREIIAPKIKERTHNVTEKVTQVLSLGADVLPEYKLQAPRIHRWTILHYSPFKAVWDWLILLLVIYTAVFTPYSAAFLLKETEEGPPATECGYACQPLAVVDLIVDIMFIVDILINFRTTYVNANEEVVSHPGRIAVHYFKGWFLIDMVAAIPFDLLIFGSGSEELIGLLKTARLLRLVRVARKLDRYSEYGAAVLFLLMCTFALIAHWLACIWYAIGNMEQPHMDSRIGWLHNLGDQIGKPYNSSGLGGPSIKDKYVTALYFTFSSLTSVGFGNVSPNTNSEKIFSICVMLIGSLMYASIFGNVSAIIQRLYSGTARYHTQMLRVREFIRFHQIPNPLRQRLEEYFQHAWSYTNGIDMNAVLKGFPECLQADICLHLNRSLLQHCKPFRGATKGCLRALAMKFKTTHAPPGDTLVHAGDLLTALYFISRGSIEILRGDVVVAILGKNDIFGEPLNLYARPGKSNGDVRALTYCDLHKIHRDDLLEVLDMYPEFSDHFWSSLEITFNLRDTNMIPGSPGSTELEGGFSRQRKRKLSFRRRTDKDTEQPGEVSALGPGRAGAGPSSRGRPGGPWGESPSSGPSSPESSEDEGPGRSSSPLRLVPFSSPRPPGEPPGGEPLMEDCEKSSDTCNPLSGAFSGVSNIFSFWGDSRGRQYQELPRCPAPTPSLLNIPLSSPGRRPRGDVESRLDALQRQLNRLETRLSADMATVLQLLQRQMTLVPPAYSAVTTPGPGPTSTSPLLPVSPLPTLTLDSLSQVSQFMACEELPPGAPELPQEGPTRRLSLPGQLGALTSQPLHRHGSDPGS
Further: assay procedure not described here.

T1 sequence (P23219 whole entry): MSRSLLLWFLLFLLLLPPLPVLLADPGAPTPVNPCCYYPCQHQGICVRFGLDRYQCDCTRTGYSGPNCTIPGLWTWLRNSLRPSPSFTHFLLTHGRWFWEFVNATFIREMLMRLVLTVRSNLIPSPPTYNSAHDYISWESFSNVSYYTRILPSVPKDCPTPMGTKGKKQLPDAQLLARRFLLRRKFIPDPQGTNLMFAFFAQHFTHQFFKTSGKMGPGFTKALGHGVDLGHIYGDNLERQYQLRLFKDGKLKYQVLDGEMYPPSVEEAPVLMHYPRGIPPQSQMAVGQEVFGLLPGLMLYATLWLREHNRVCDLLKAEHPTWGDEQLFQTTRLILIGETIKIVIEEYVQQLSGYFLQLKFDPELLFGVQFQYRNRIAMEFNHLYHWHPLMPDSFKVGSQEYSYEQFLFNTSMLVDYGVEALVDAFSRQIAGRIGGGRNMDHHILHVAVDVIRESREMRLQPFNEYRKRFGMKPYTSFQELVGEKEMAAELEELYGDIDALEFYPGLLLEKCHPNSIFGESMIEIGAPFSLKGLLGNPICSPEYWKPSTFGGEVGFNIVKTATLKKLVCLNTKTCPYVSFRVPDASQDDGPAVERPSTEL
Chain of cGMP-inhibited 3',5'-cyclic phosphodiesterase 3A (Q14432 whole entry): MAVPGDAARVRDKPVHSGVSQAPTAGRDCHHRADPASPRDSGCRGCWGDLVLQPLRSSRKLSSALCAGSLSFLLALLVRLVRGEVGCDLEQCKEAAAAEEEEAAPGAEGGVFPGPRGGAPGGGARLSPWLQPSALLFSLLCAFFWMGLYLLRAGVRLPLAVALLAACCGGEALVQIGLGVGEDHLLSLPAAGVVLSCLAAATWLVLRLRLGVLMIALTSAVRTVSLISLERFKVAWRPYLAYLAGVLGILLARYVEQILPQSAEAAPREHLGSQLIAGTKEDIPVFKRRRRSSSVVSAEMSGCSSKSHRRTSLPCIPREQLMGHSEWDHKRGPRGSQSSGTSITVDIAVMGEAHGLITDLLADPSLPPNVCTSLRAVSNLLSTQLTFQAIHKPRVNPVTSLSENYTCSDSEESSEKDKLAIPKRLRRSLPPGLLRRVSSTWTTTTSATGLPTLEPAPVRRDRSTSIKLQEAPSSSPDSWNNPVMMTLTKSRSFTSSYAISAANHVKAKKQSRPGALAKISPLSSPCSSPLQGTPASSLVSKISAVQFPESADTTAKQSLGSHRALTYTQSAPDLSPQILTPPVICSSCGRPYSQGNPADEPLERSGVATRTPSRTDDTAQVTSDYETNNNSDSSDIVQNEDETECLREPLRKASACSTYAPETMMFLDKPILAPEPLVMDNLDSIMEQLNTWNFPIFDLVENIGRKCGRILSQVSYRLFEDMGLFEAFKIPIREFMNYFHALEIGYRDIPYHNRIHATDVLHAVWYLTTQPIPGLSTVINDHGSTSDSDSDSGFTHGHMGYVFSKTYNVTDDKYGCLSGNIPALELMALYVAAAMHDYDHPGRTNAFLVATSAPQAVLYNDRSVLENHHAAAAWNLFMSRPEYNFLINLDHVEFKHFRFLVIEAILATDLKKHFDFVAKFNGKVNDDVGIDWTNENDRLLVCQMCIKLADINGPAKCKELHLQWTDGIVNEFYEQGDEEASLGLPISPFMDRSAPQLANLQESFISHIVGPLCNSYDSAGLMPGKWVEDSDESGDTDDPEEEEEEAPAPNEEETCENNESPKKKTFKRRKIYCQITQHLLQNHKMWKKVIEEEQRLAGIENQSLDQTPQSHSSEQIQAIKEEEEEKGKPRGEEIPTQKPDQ

SMILES	AC50 [1] [µM]	AC50 [2] [µM]	AC50 [3] [µM]	AC50 (Thromboxane A2 receptor [4]) [µM]	AC50 [5] [µM]	AC50 (Thromboxane A2 receptor [6]) [µM]	AC50 (Estrogen receptor) [µM]	AC50 [7] [µM]	AC50 (Acetylcholinesterase) [µM]	AC50 (Progesterone receptor) [µM]	AC50 (Prothrombin) [µM]	AC50 (Adenosine receptor A3) [µM]	AC50 (Adenosine receptor A1) [µM]	AC50 (D(4) dopamine receptor) [µM]	AC50 [8] [µM]
C=CC[C@]1(O)CC[C@H]2[C@@H]3CCC4=CCCC[C@@H]4[C@H]3CC[C@@]21C [ALLYLESTRENOL]	> 30	> 30	> 30	> 30	> 30	> 30	0.331	25.5	> 30	0.0039	> 30	3.91	> 30	–	–
COC(=O)[C@@H]1[C@H]2C[C@H]3c4[nH]c5ccccc5c4CCN3C[C@@H]2CC[C@@H]1O [YOHIMBINE]	–	–	–	–	–	–	–	–	> 0.3	–	–	–	–	> 10	29.1
